Test systems include ACHN renal; EKVX NSCLC; HCC-2998 colon; OVCAR-3 ovarian; PC-3 prostate; RXF 393 renal; SK-OV-3 ovarian; MALME-3M melanoma; MDA-N.
Experiment in all cases: NCI-60 cell line screen, 48 h

SMILES strings stand for the structures.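 Values below derive from 48-hour exposures of cells grown in 96-well plates, with endpoints linearly interpolated between the two concentrations bracketing the appropriate inhibition level. The concentration for 50% growth inhibition is given as GI50. At the TGI there is no net growth.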 Bounds are passed on as bounds.

`CCCCCCCCCCCCCCCCNc1ccn(C2CC(OP(=O)(O)OCC3OC(n4cc(CC)c(=O)[nH]c4=O)CC3O)C(CO)O2)c(=O)n1` (stereo not drawn): the TGI in the assay with ACHN renal is greater than 100 µM; in the assay with EKVX NSCLC, greater than 100 µM; with HCC-2998 colon, 88 µM; with OVCAR-3 ovarian, greater than 100 µM; in the assay on PC-3 prostate, 37.1 µM; in the assay on RXF 393 renal, 46.4 µM. In the assay on SK-OV-3 ovarian, this compound returned a TGI of 82.1 µM.
As to `COc1ccc(NS(=O)c2cccc(C)c2)cc1` (stereo not drawn), the TGI is greater than 100 µM in the assay with ACHN renal; greater than 100 µM in the assay on EKVX NSCLC; 33.6 µM in the assay with HCC-2998 colon; greater than 100 µM in the assay with MALME-3M melanoma; greater than 100 µM in the assay with MDA-N; greater than 100 µM in the assay with OVCAR-3 ovarian. In addition, the TGI in the assay on PC-3 prostate and with RXF 393 renal was greater than 100 µM in each case.
`CCOC(=O)c1cn(C)nc1N/C(C)=C\C(=O)c1ccccc1`: the TGI with ACHN renal, with EKVX NSCLC, with HCC-2998 colon, in the assay on MALME-3M melanoma, in the assay on OVCAR-3 ovarian and with PC-3 prostate was greater than 100 µM in each case. The TGI with SK-OV-3 ovarian is greater than 100 µM.
As for `O=C(NCc1ccccc1)c1c(O)c2ccccc2[nH]c1=O`, the TGI in the assay on ACHN renal, in the assay on EKVX NSCLC, in the assay with HCC-2998 colon, in the assay with MALME-3M melanoma, in the assay with MDA-N and with OVCAR-3 ovarian was greater than 100 µM in each case. The TGI with PC-3 prostate and in the assay with RXF 393 renal was greater than 100 µM each time.
`COC(=O)C1[C@H](C(=O)OC)C1(Br)CBr` (stereo partly drawn): the TGI in the assay on ACHN renal, in the assay with EKVX NSCLC, in the assay on HCC-2998 colon, with MDA-N, in the assay with OVCAR-3 ovarian and in the assay on PC-3 prostate was greater than 100 µM in each case. For the same compound, the TGI with RXF 393 renal and with SK-OV-3 ovarian was greater than 100 µM in each case.
For `C=C1C(=O)O[C@H]2[C@H]([C@H](C)CCCC(C)=O)O[C@H]([C@@]3(C)CCC(=O)O3)C[C@@H]12`, the TGI with ACHN renal is greater than 100 µM; with EKVX NSCLC, greater than 100 µM; in the assay on HCC-2998 colon, greater than 100 µM; in the assay on MALME-3M melanoma, 54.3 µM; with MDA-N, greater than 100 µM; with OVCAR-3 ovarian, greater than 100 µM. The TGI in the assay on PC-3 prostate and with SK-OV-3 ovarian was greater than 100 µM each time.
Consider `COc1ccc(NC(=S)NNC(=O)c2cc(-c3ccccc3)nc3ccccc23)cc1`, for which the TGI turned out to be 87.3 µM in the assay on ACHN renal; 24.6 µM in the assay on HCC-2998 colon; 54 µM with MALME-3M melanoma; 15.5 µM in the assay on MDA-N; 33.1 µM with OVCAR-3 ovarian; 55.1 µM in the assay with PC-3 prostate. Besides, the TGI with RXF 393 renal came out at 44.6 µM; with SK-OV-3 ovarian it was 15.9 µM.
Consider `O=S(=O)(/N=C1/SC(=Nc2ccccc2)N(c2ccccc2)/C1=N/S(=O)(=O)c1ccccc1)c1ccccc1`, for which the TGI with ACHN renal worked out at 68.7 µM; with EKVX NSCLC, 76.8 µM; in the assay with HCC-2998 colon it was 48.7 µM; in the assay on MALME-3M melanoma, 68.6 µM; with MDA-N, 34.4 µM.
For the compound `COc1cccc(C2CC(=O)c3cccn32)c1` (stereo not drawn), the TGI in the assay on ACHN renal, with EKVX NSCLC, with HCC-2998 colon, in the assay with OVCAR-3 ovarian, in the assay with PC-3 prostate and with RXF 393 renal was greater than 100 µM each time. This compound registered a TGI with SK-OV-3 ovarian greater than 100 µM.
Take `O=C(NCCCCNCCCNC(=O)OCc1ccccc1)OCc1ccccc1`: the TGI in the assay with ACHN renal was greater than 100 µM; in the assay with EKVX NSCLC, greater than 100 µM; in the assay with HCC-2998 colon, 38.7 µM; in the assay with OVCAR-3 ovarian, greater than 100 µM; in the assay on PC-3 prostate, greater than 100 µM; with RXF 393 renal, 66.6 µM. For the same compound, the TGI in the assay on SK-OV-3 ovarian was greater than 100 µM.
Turning to `CN(C)C=Nc1nncc2n[nH]nc12`, the TGI in the assay with ACHN renal, with EKVX NSCLC, with MDA-N, with OVCAR-3 ovarian, in the assay on PC-3 prostate and with RXF 393 renal was greater than 100 µM throughout.
Take `c1cc2ccc1CNCCN1CCNCc3ccc(cc3)Oc3ccc(cc3)CNCCN(CCNCc3ccc(cc3)O2)CCNCc2ccc(cc2)Oc2ccc(cc2)CNCC1`: the GI50 in the assay on ACHN renal is 3.88 µM; with HCC-2998 colon, 0.659 µM; in the assay with MALME-3M melanoma, 1.66 µM; with OVCAR-3 ovarian, 1.65 µM; with PC-3 prostate it was 0.358 µM; in the assay on RXF 393 renal, 1.78 µM. In the assay with SK-OV-3 ovarian, the GI50 is 1.72 µM. In addition, the TGI amounted to 15.5 µM in the assay with ACHN renal; 1.99 µM in the assay on HCC-2998 colon; 3.13 µM in the assay on MALME-3M melanoma; 3.05 µM in the assay on OVCAR-3 ovarian; 1.24 µM in the assay with PC-3 prostate; 3.72 µM with RXF 393 renal. Further, in the assay with SK-OV-3 ovarian, the TGI was found to be 3.15 µM.
As for `COC(=O)[C@@H]1O[C@]12[C@@H](CO[Si](C)(C)C(C)(C)C)O[C@@H](n1cc(C)c(=O)[nH]c1=O)[C@@H]2O[Si](C)(C)C(C)(C)C`, the TGI turned out to be 33 µM in the assay on ACHN renal; 53.6 µM with EKVX NSCLC; 43.4 µM in the assay on MALME-3M melanoma; 27.6 µM in the assay on MDA-N; 31.1 µM in the assay on OVCAR-3 ovarian; 55.7 µM in the assay on PC-3 prostate. In addition, the TGI is 22.7 µM in the assay with RXF 393 renal and greater than 100 µM with SK-OV-3 ovarian.
Consider `CCOC(=O)N1C(=S)C(C(=O)OC)(C(=O)OC)N=C1C`, for which the TGI in the assay with ACHN renal, in the assay on EKVX NSCLC, with HCC-2998 colon, with MDA-N, in the assay with OVCAR-3 ovarian and in the assay with PC-3 prostate was greater than 100 µM each time. Also, the TGI with RXF 393 renal and in the assay with SK-OV-3 ovarian was greater than 100 µM each time.
For `C=C1C(=O)O[C@H]2C/C(C=O)=C\[C@H]3O[C@H]3/C(COC(=O)C(C)C)=C/CC12` (stereo partly drawn), the TGI is 6.59 µM with ACHN renal; 29.8 µM with EKVX NSCLC; 27.2 µM with HCC-2998 colon; 24.2 µM with MALME-3M melanoma; 13.4 µM in the assay on MDA-N; 19.3 µM with OVCAR-3 ovarian. In addition, the results for the TGI with PC-3 prostate and with RXF 393 renal were 8.59 µM and 14 µM, respectively.
Turning to `O=c1c(-c2ccc(O)cc2)coc2cc(O)cc(O)c12`, the TGI with ACHN renal, in the assay on EKVX NSCLC, with HCC-2998 colon, with MALME-3M melanoma, with MDA-N and with PC-3 prostate was greater than 100 µM throughout.

Source of the values: PubChem BioAssay (NCI).
